± gives the standard deviation of the averaged measurements.
What was measured:
PACLITAXEL = compound: CC(=O)O[C@H]1C(=O)[C@@]2(C)[C@H]([C@H](OC(=O)c3ccccc3)[C@]3(O)C[C@H](OC(=O)[C@H](O)[C@@H](NC(=O)c4ccccc4)c4ccccc4)C(C)=C1C3(C)C)[C@]1(OC(C)=O)CO[C@@H]1C[C@@H]2O [PACLITAXEL]; assay: surviving fraction relative to DMSO-only wells; higher = less growth inhibition; conditions: exposure time: 5 days
Summary of the method: (§1)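 Inhibitors were tested at 0.5, 1, 5, 10, 50, 100, 500 and 1000 nM, applied continuously for five days beginning 24 hours after log-phase tumour cells were seeded at 250–500 per well in 384-well plates. CellTiter-Glo luminescence served as the viability measure, expressed as surviving fraction against the median of DMSO-only wells. Each line, screened three times, was kept only with replicate Pearson r >0.7 and median Z' >0.3.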

[1] = compound: CC(=O)c1c(C)c2cnc(Nc3ccc(N4CCNCC4)cn3)nc2n(C2CCCC2)c1=O; assay: as above; conditions: exposure time: 5 days
Summary of the method: as §1

| Test System | surviving fraction (PACLITAXEL; 0.5 nM) | surviving fraction (PACLITAXEL; 1 nM) | surviving fraction (PACLITAXEL; 5 nM) | surviving fraction (PACLITAXEL; 10 nM) | surviving fraction (PACLITAXEL; 50 nM) | surviving fraction (PACLITAXEL; 100 nM) | surviving fraction (PACLITAXEL; 500 nM) | surviving fraction (PACLITAXEL; 1000 nM) | surviving fraction ([1]; 0.5 nM) | surviving fraction ([1]; 1 nM) | surviving fraction ([1]; 5 nM) | surviving fraction ([1]; 10 nM) | surviving fraction ([1]; 50 nM) | surviving fraction ([1]; 100 nM) | surviving fraction ([1]; 500 nM) | surviving fraction ([1]; 1000 nM) |
| --- | --- | --- | --- | --- | --- | --- | --- | --- | --- | --- | --- | --- | --- | --- | --- | --- |
| LM7 BONE | 0.951 ± 0.061 | 0.825 ± 0.034 | 0.123 ± 0.019 | 0.092 ± 0.003 | 0.0847 ± 0.0068 | 0.075 ± 0.0044 | 0.0723 ± 0.0015 | 0.0703 ± 0.004 | 0.997 ± 0.1 | 0.98 ± 0.14 | 1.108 ± 0.011 | 1.05 ± 0.032 | 1.06 ± 0.093 | 1.09 ± 0.046 | 0.999 ± 0.12 | 1.02 ± 0.0049 |
| MCF7 BREAST | 0.863 ± 0.077 | 0.714 ± 0.016 | 0.432 ± 0.02 | 0.383 ± 0.0065 | 0.372 ± 0.01 | 0.356 ± 0.0077 | 0.333 ± 0.013 | 0.326 ± 0.012 | 0.965 ± 0.043 | 0.8934 ± 0.0072 | 0.891 ± 0.03 | 0.902 ± 0.026 | 0.956 ± 0.048 | 0.934 ± 0.01 | 0.925 ± 0.037 | 0.899 ± 0.032 |
| MDAMB157 BREAST | 0.867 ± 0.075 | 0.674 ± 0.019 | 0.144 ± 0.022 | 0.105 ± 0.019 | 0.0473 ± 0.016 | 0.0687 ± 0.028 | 0.0473 ± 0.0098 | 0.069 ± 0.011 | 0.929 ± 0.05 | 0.884 ± 0.027 | 0.974 ± 0.042 | 0.973 ± 0.053 | 1.03 ± 0.12 | 1.01 ± 0.13 | 1 ± 0.12 | 0.902 ± 0.061 |
| HELA CERVIX | 1.04 ± 0.037 | 1.05 ± 0.1 | 0.0503 ± 0.001 | 0.0423 ± 0.0041 | 0.0277 ± 0.0016 | 0.0237 ± 0.0039 | 0.017 ± 0.0015 | 0.0247 ± 0.00076 | 1.03 ± 0.037 | 0.986 ± 0.016 | 1.01 ± 0.046 | 0.959 ± 0.04 | 1.14 ± 0.072 | 1.15 ± 0.034 | 1.16 ± 0.021 | 1.04 ± 0.039 |
| 143B BONE | 0.9755 ± 0.0078 | 0.99 ± 0.031 | 0.424 ± 0.016 | 0.265 ± 0.018 | 0.134 ± 0.0099 | 0.089 ± 0.013 | 0.0575 ± 0.0092 | 0.0655 ± 0.0064 | 1.042 ± 0.0092 | 1.048 ± 0.0064 | 1.03 ± 0.021 | 1.051 ± 0.0099 | 1.03 ± 0.046 | 1.043 ± 0.0099 | 1.03 ± 0.027 | 1.02 ± 0.027 |
| CAL72 BONE | 0.876 ± 0.061 | 0.459 ± 0.078 | 0.386 ± 0.047 | 0.297 ± 0.032 | 0.191 ± 0.018 | 0.135 ± 0.031 | 0.112 ± 0.0096 | 0.123 ± 0.025 | 1.1 ± 0.066 | 1.12 ± 0.061 | 1.12 ± 0.025 | 1.13 ± 0.05 | 1.13 ± 0.037 | 1.14 ± 0.022 | 1.14 ± 0.078 | 1.07 ± 0.048 |
| NOS1 BONE | 1.08 ± 0.072 | 0.6 ± 0.053 | 0.396 ± 0.026 | 0.304 ± 0.0081 | 0.287 ± 0.024 | 0.252 ± 0.013 | 0.214 ± 0.039 | 0.21 ± 0.024 | 0.935 ± 0.071 | 0.997 ± 0.15 | 1.17 ± 0.086 | 0.969 ± 0.053 | 1.07 ± 0.055 | 1.11 ± 0.034 | 1.09 ± 0.11 | 1.09 ± 0.061 |
| VP229 BREAST | 1.05 ± 0.091 | 0.93 ± 0.067 | 0.516 ± 0.064 | 0.364 ± 0.041 | 0.338 ± 0.013 | 0.27 ± 0.019 | 0.279 ± 0.052 | 0.293 ± 0.024 | 1.1 ± 0.1 | 1.05 ± 0.04 | 1.06 ± 0.034 | 0.852 ± 0.093 | 0.995 ± 0.055 | 0.978 ± 0.15 | 0.932 ± 0.037 | 0.776 ± 0.075 |
| PCI30 HEADNECK | 0.721 ± 0.06 | 0.355 ± 0.044 | 0.199 ± 0.022 | 0.114 ± 0.03 | 0.0853 ± 0.011 | 0.0737 ± 0.016 | 0.0753 ± 0.016 | 0.071 ± 0.0061 | 1.07 ± 0.085 | 1.04 ± 0.069 | 1.08 ± 0.1 | 1.07 ± 0.03 | 1.09 ± 0.062 | 0.931 ± 0.065 | 0.81 ± 0.06 | 0.781 ± 0.016 |
| LNCAP PROSTATE | 0.531 ± 0.04 | 0.358 ± 0.086 | 0.054 ± 0.015 | 0.0533 ± 0.004 | 0.0417 ± 0.0015 | 0.0347 ± 0.0038 | 0.0387 ± 0.0021 | 0.0477 ± 0.0055 | 0.953 ± 0.0097 | 0.975 ± 0.087 | 0.854 ± 0.13 | 0.857 ± 0.11 | 0.952 ± 0.15 | 1.1 ± 0.13 | 0.961 ± 0.079 | 0.945 ± 0.16 |
| HCC1806 BREAST | 0.89 ± 0.17 | 0.1833 ± 0.0015 | 0.0437 ± 0.0038 | 0.0357 ± 0.0032 | 0.0307 ± 0.0057 | 0.0207 ± 0.0029 | 0.0253 ± 0.0031 | 0.021 ± 0.0017 | 0.984 ± 0.095 | 0.999 ± 0.085 | 1.05 ± 0.046 | 1.08 ± 0.17 | 1.12 ± 0.1 | 1.09 ± 0.024 | 0.941 ± 0.17 | 0.95 ± 0.072 |
| SCC003 HEADNECK | 0.945 ± 0.11 | 0.805 ± 0.075 | 0.324 ± 0.037 | 0.27 ± 0.028 | 0.192 ± 0.01 | 0.196 ± 0.031 | 0.179 ± 0.021 | 0.166 ± 0.018 | 1.12 ± 0.06 | 1.02 ± 0.064 | 1.11 ± 0.036 | 1.08 ± 0.086 | 1.13 ± 0.14 | 1.08 ± 0.076 | 1.06 ± 0.081 | 0.884 ± 0.084 |
| SJSA1 BONE | 0.942 ± 0.048 | 0.833 ± 0.041 | 0.342 ± 0.0057 | 0.18 ± 0.013 | 0.135 ± 0.0021 | 0.113 ± 0.0021 | 0.107 ± 0.01 | 0.114 ± 0.017 | 1 ± 0.037 | 1.01 ± 0.099 | 1.028 ± 0.0059 | 1.04 ± 0.049 | 1.08 ± 0.028 | 1.12 ± 0.013 | 0.922 ± 0.037 | 0.88 ± 0.036 |
| SUM149.B1*.S BREAST | 0.994 ± 0.029 | 1.02 ± 0.048 | 0.238 ± 0.027 | 0.158 ± 0.029 | 0.1 ± 0.0056 | 0.0972 ± 0.0036 | 0.091 ± 0.0063 | 0.097 ± 0.0076 | 1.13 ± 0.034 | 1.07 ± 0.013 | 1.11 ± 0.018 | 1.07 ± 0.019 | 1.19 ± 0.056 | 1.22 ± 0.058 | 1.139 ± 0.011 | 1.08 ± 0.021 |
| SG31 HEADNECK | 0.976 ± 0.12 | 0.887 ± 0.06 | 0.455 ± 0.029 | 0.381 ± 0.036 | 0.271 ± 0.037 | 0.252 ± 0.033 | 0.267 ± 0.045 | 0.273 ± 0.028 | 1.22 ± 0.17 | 1.08 ± 0.19 | 0.988 ± 0.21 | 0.911 ± 0.13 | 0.976 ± 0.071 | 0.977 ± 0.24 | 1.08 ± 0.13 | 1.14 ± 0.19 |
| SAOS2 BONE | 1.08 ± 0.043 | 1.06 ± 0.018 | 0.46 ± 0.043 | 0.165 ± 0.013 | 0.0527 ± 0.004 | 0.0527 ± 0.00058 | 0.0447 ± 0.0063 | 0.0557 ± 0.0063 | 1.07 ± 0.062 | 1.06 ± 0.034 | 1.13 ± 0.051 | 1.09 ± 0.037 | 1.1287 ± 0.00058 | 1.138 ± 0.0069 | 1.13 ± 0.065 | 1.07 ± 0.013 |

— the supplement of paper PMC6045584
